Measurements as given in US20030153536A1, “Compounds and methods of treating transplant rejection” (priority 2001, published 2003).

Columns and labels:
[1] = tested on: human aortic smooth muscle cells (AoSMC); experiment: Smooth muscle cell proliferation inhibition (3H-thymidine incorporation); assay type: cell-based; details: 5% serum-stimulated AoSMC, 20 hr incubation, read-out: SMC Proliferation Inhibition (IC50)
Description: Cultured human aortic smooth muscle cells (AoSMC) were obtained from Clonetics, Inc. and were used below passage 10. Cells were seeded in 24-well plates. When cells were 80% confluent, they were made quiescent by adding media containing 0.2% serum (as compared to 5% serum in normal culture media) for 48 hours. The cells were then stimulated by 5% serum in the presence or absence of compounds dissolved in DMSO. To establish a dose curve and IC50 for each compound, multiple concentrations (20,15,10,5 μM) were used. Rapamycin (at 1 and 0.1 μM) was used as a positive control for the assay. After a 20 hr incubation with or without test compounds, ^3H-thymidine (0.5 μCi/per well) was added to the cells for 4 hours of labeling. Washed cells were then lysed in NaOH and the amount of^3H-thymidine incorporation was determined by a scintillation counter.

[2] = background statement; cited from earlier work
[3] = Tolerability in rat aortic allograft study; assay type: in vivo
Description: (§1) Compound A was administered subcutaneously to recipient animals three days prior to the surgery and once daily for 90 days thereafter. […] Thereafter, the dose was reduced to 30 mg/kg/d for 6 days and then further reduced to 5 mg/kg/d for the remainder of the study.
The group receiving the 40/30/5 mg/kg/d dose of Compound A evidenced the highest degree of inhibition despite the fact that it received only a 40 mg/kg/d dose for 13 days prior to dosing down. […] After 90 days of dosing, the trough plasma levels were 10, 18 and 28 uM for the 10,20 and 40/30/5 mg/kg/d doses, respectively.

[4] = tested on: ACI-to-Lewis rat aortic allograft; experiment: Rat aortic allograft model (graft arteriosclerosis); assay type: in vivo; details: for percent inhibition of IM ratio / percent inhibition of the % LN (luminal narrowing): day 90, vs vehicle control
Description: Compound A was evaluated for graft arteriosclerosis resulting from aortic heterotropic transplantation. This is a model of graft arteriopathy which is the major obstacle to long term success of solid organ transplantation.
Donor descending aortas from ACI rats were heterotypically transplanted into Lewis rat abdomens in end-to-end fashion with minimal ischemic time. 55 rats were assigned to five groups as follows:
as §1
On day 90, the allograft segment was removed, fixed in 10% buffered formal in and paraffin embedded. Sections were stained with von Geisson's elastic stain, and intima-to-media area (IM) ratio and percent luminal narrowing (% LN) were assessed by digital morphometry (See FIGS. 1 and 2). Blood was collected at regular intervals throughout the study and plasma evaluated for compound levels (See FIG. 3).

[5] = 20 mg and 40/30/5 mg/kg/d doses

CCOC(=O)CC[C@H](NCC(O)COc1c(C(C)(C)C)cc(SC(C)(C)Sc2cc(C(C)(C)C)c(O)c(C(C)(C)C)c2)cc1C(C)(C)C)C(=O)OCC (some centres unmarked) [E]
IC50 [1]: 3.7 µM

C=CC[C@@H]1/C=C(\C)C[C@H](C)C[C@H](OC)[C@H]2O[C@@](O)(C(=O)C(=O)N3CCCC[C@H]3C(=O)O[C@H](/C(C)=C/[C@@H]3CC[C@@H](O)[C@H](OC)C3)[C@H](C)[C@@H](O)CC1=O)[C@H](C)C[C@@H]2OC [FK506, tacrolimus]
immunosuppressive activity relative to cyclosporin [2]: 10-100 times

CC(C)(Sc1cc(C(C)(C)C)c(O)c(C(C)(C)C)c1)Sc1cc(C(C)(C)C)c(OC(=O)CN)c(C(C)(C)C)c1 [Compound I]
IC50 [1]: 8 µM

CC(C)(Sc1cc(C(C)(C)C)c(O)c(C(C)(C)C)c1)Sc1cc(C(C)(C)C)c(OCCCC(=O)O)c(C(C)(C)C)c1 [Compound A, 4-[4-[[1-[[3,5-bis(1,1-dimethylethyl)-4-hydroxyphenyl]thio]-1-methylethyl]thio]-2,6-bis(1,1-dimethylethyl)phenoxy]butyric acid]
toxic side effects ([3]; 20 mg/kg/d): without grossly discemable toxic side effects | body weight change ([3]; 40 mg/kg/d group, until dose dropped to 5 mg/kg/d): initially lost weight | adverse findings leading to dose reduction ([3]; 40 mg/kg/d subcutaneous, 13 days): failure to gain weight and skin irritation | tolerability of treatment ([3]; 10 and 20 mg/kg/d subcutaneous): well tolerated | percent inhibition of IM ratio ([4]; 10 mg/kg/d subcutaneous): 11% | percent inhibition of the % LN (luminal narrowing) ([4]; 10 mg/kg/d subcutaneous): 22% | % LN compared to the vehicle group [4, 5]: significantly lower | IM ratio compared to the vehicle group [4, 5]: significantly lower | percent inhibition of IM ratio ([4]; 20 mg/kg/d subcutaneous): 28% | percent inhibition of the % LN (luminal narrowing) ([4]; 20 mg/kg/d subcutaneous): 33% | inhibition of aortic neointimal growth ([4]; 10, 20, 40/30/5 mg/kg/d): dose-dependent inhibition | percent inhibition of IM ratio ([4]; 40/30/5 mg/kg/d subcutaneous): 49% | percent inhibition of the % LN (luminal narrowing) ([4]; 40/30/5 mg/kg/d subcutaneous): 52% | IC50 [1]: 5.5 µM
